Measured values reported in patent US20020107197A1, “Ligands for G protein coupled receptors and methods of using them” (priority 2000, published 2002).

Tests used:
GPR4 = target: T1, GPR4 (Homo sapiens, UniProt P46093); experiment: DNA synthesis ([3H]thymidine incorporation) in GPR4-infected Swiss 3T3 cells; assay type: cell-based; details: 3 μM, GPR4-infected Swiss 3T3 cells
T1 construct: were used to generate full length GPR4, which was digested with EcoRI and Xba I and cloned into the pBs3HA vector; expressed in transfected cells
T1 sequence (P46093 whole entry): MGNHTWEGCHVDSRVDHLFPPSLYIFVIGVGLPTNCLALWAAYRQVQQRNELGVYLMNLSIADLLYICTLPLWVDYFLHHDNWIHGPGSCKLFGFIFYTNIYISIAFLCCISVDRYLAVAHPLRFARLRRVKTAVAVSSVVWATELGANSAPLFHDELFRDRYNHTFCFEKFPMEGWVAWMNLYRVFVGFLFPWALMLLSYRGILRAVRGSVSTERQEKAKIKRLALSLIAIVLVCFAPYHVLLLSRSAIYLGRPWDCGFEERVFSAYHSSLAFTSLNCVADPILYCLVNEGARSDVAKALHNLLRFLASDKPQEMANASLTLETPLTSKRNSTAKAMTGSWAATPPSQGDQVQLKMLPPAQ
Method: The effect of SPC and LPC on DNA synthesis was measured using [^3H] thymidine incorporation. Briefly, GPR4-ires-GFP- and GFP-Swiss 3T3 cells were plated in 96-well plates, serum-starved for 24 h, and treated with SPC, LPC, or other lipids in serum-free DMEM for 24 h. Cells were incubated with 0.75 μCi/ml [^3H]thymidine in serum-free DMEM for the last 18 h. Cells were harvested onto filter papers presoaked in 1% polyethylenimine using the automated cell harvester HARVEST 96. Incorporated [^3H]thymidine was counted in a 1450 Microbeta Trilux Liquid Scintillation and Luminescence Counter (Perkin-Elmer-Wallac, Inc.).

OGR1 = target: T2, OGR1 (Homo sapiens, UniProt Q15743); experiment: SPC binding affinity for OGR1
T2 construct: expressed in transfected cells
T2 sequence (Q15743 whole entry, species assumed): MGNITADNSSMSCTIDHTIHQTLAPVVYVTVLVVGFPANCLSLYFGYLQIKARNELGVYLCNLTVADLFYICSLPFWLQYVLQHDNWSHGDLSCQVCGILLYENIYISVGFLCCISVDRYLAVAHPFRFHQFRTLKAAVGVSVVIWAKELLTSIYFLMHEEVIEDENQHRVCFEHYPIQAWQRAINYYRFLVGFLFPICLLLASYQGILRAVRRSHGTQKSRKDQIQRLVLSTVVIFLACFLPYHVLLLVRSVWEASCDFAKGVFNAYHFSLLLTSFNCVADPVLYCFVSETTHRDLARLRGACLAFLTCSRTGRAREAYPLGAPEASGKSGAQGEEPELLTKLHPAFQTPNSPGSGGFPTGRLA

HEY ovarian cancer cells = experiment: DNA synthesis / growth of HEY ovarian cancer cells with SPC and phage preparations; assay type: cell-based, human; details: SPC 10 μM
Method: To determine if these selected phage clones were capable of blocking a biological effect of SPC, we mixed phage preparations with SPC. After a 30 min incubation, this mixture was added to HEY cells and its effect on SPC-induced cell proliferation was tested. If a phage clone was carrying a specific sequence which binds to SPC, the addition of the phage to SPC could block the effect of SPC on HEY cells.

SMILES	increase of [3H]thymidine incorporation (GPR4) [fold]	Kd (OGR1) [µM]	effect on DNA synthesis in HEY cells (HEY ovarian cancer cells)
CCCCCCCCCCCCCCCC(=O)OC[C@@H](O)COP(=O)([O-])OCC[N+](C)(C)C [16:0-LPC]	1.6		
CCCCCCCCCCCCC/C=C/[C@@H](O)[C@@H](N)COP(=O)([O-])OCC[N+](C)(C)C [SPC, Sphingosylphosphorylcholine]		0.033	inhibited DNA synthesis
